Assay results reported in publication PMC8599359 (Molecular Neurobiology, 2021).

Columns and labels:
MMP = assay: Broad-spectrum MMP activity in embryonic brain (fluorometric substrate); format: in vivo, mouse; settings: GD 16.5, dams 50 mg/kg/day oral GD 0.5-15.5, compared to controls
Description: Broad-spectrum MMP activity was measured in whole brain tissue homogenates of normal, viable embryos (GD 16.5) using a quenched fluorogenic substrate, OMNIMMP® RED (BML-P277-0100, Enzo Life Sciences). Whole brain tissues were isolated from randomly selected embryos from different dams for both DTG and control groups. Tissues were homogenized in NP-40 lysis buffer using a Qiagen TissueLyzer II (Valencia, CA). Tissue lysates were centrifuged at 16,000 g at 4 °C for 20 min and supernatants were collected. Total protein levels in each sample were quantitated using Pierce™ BCA Protein Assay Kit (Thermo Fisher Scientific, Waltham, MA). The assays were performed in a 96-well, black, flat, microplate format. Fifty micrograms of protein for each sample was incubated with buffer (BML-KI175-0020, Enzo Life Sciences) at 37 °C for 60 min. Each sample was platted in duplicates. Later, reaction was started by adding fluorogenic substrate. Plate was read at similar instructions mentioned above for fluorometric substrate assay. Ilomastat (GM6001; broad-spectrum MMP inhibitor, ab120845, abcam) was added to randomly selected protein samples in additional wells at 20 µM concentration as an assay control.

C3H/HeJ mice pups, brain = assay: Diffusion tensor imaging of pups; format: in vivo, mouse
Description: In vivo bioimaging (diffusion tensor imaging (DTI) and magnetic resonance spectroscopy (^1H MRS)) was performed using a 7 Tesla/16 cm Bruker PharmaScan or a 7 Tesla 21 cm Bruker Biospec (Karlsure, Germany) MRI/MRS system. At PND 28–34, DTI was performed on live mice pups to determine microstructural changes. Animals from both DTG- and vehicle-treated (control) groups were scanned. Pups (male and female) were randomly selected from each dam. As described in our previous work, a 4-segment echo planar imaging (EPI) readout with a balanced, rotationally invariant and alternating polarity icosahedral scheme (12 directions) and b value = 800 s/mm^2 were utilized. Diffusion Toolkit (http://trackvis.org/dtk/) was used to calculate DTI metrics, fractional anisotropy (FA). Region of interest (ROI) analysis was performed to measure DTI metrics on hippocampus (HI), cortex (CT), striatum (ST), thalamus (TH), hypothalamus (HY), and cerebellum (CE).

[1] = PK and BD of DTG during pregnancy; format: in vivo, mouse; settings: for Kp: C3H/HeJ, mouse, oral, 50 mg/kg
Source text: Drug administration was started at the day of plug detection (GD 0.5) and continued up to the day of birth of pups. Blood samples were collected from dams into heparinized tubes by cheek puncture (submandibular vein) using a 5-mm lancet (MEDIpoint, Inc., Mineola, NY) at GD 8.5 and 16.5 and postnatal days (PND) 4, 12, and 21 for plasma collection. […] Each sample (plasma or tissue) evaluated for DTG levels was randomly selected from distinct litters.
DTG was purchased from BOC Sciences (Shirley, NY). […]
PK and BD of DTG during pregnancy
DTG levels were quantitated in plasma, and tissue homogenates by ultraperformance liquid chromatography tandem mass spectrometry (UPLC-MS/MS). […]
ml of acetonitrile (ACN) and 10 µl of internal standard (IS) solution were added to 2 5 µl of plasma.
DTG-d3 at a final concentration of 50 ng/m l ser ved as the IS. Samples were vortexed and centrifuged at 17,000×g for 10 min at 4 °C. Supernatants were dried using a speed- vac and reconstituted in 100 µl 50% (v/v) ACN in water. The samples were vortexed and centrifuged at […]
analysis, 50– 200 mg of tissue (placenta, fetal brain) was homogenized in 9 volumes of 90% (v/v) methanol (MeOH) in water using a Qiagen TissueLyzer II (Valencia, CA). Subsequently, 280 µl o f MeOH, 10 µl of 80% (v/v) MeOH in water, and 10 µl IS were added to 100 µl of tissue homogenate.
Samples were then vortexed, left for 5 min on ice and centrifuged at 17,000 × g and 4 °C for 15 min. Twenty µl of supernatant was mixed with 80 µl of 50% (v/v) ACN in water. The samples were centrifuged at 17,000 × g at 4 °C f or 10 m in and the supernatant was used for analysis. Standard

[2] = test system: infants born to women receiving DTG at conception; settings: cited from earlier work
MMP-9 = assay: MMP expression in embryo brain (Western blot); format: in vivo, mouse; settings: GD 16.5, DTG vs control
Description: (§1) At GD 16.5, embryo whole brain tissues were isolated and homogenized in lysis buffer. Whole brain tissue homogenates were analyzed for expression of MMP-2, 9, and 14 using Western blot assay. Six pups were randomly selected from 6 different dams for both DTG- and vehicle-treated groups. Tissue lysates were centrifuged at 16,000 × g at 4 °C for 20 min and supernatants were collected. Total protein levels in each sample were quantitated using Pierce™ BCA Protein Assay Kit (Thermo Fisher Scientific). Fifteen micrograms of protein for each sample was ran on 10% SDS–polyacrylamide gel. Proteins were transferred to activated PVDF membrane. Membranes were blocked with 5% non-fat milk (BIO-RAD) for 1 h and incubated with individual primary antibody overnight at 4 °C on a shaker. The primary antibodies used were rabbit monoclonal anti-MMP-2 (ab181286, abcam, Cambridge, MA), rabbit polyclonal anti-MMP-9 (ab38898, abcam), rabbit monoclonal anti-MMP-14 (ab51074, abcam), rabbit monoclonal GAPDH (Cell Signaling Technology, Inc., Danvers, MA), and mouse monoclonal β-actin (Santa Cruz Biotechnology, Dallas, TX). All the primary antibodies were used at 1:2000 dilution. After overnight incubation with primary antibody, the membranes were washed with Tris-buffered saline with 0.1% Tween® 20 detergent (TBST) three times (5 min each wash). Membranes were then incubated with secondary antibody for 1 h at room temperature. The secondary antibodies used were goat anti-rabbit IgG H&L (HRP) (ab205718, abcam) and goat anti-mouse IgG H&L (HRP) (ab205719, abcam). For secondary antibodies, 1:10,000 dilutions were used. Blots were developed using SuperSignal™ West Femto Maximum Sensitivity Substrate (Thermo Fisher Scientific) and iBright 750 Imaging System. Band intensity was analyzed using ImageJ software.

MMP-2 = assay: MMP expression in embryo brain (Western blot); format: in vivo, mouse; settings: GD 16.5, DTG vs control
Description: as §1

MMP-14 = assay: MMP expression in embryo brain (Western blot); format: in vivo, mouse; settings: GD 16.5, DTG vs control
Description: as §1

In the case of `C[C@@H]1CCO[C@H]2Cn3cc(C(=O)NCc4ccc(F)cc4F)c(=O)c(O)c3C(=O)N12` [DTG, Dolutegravir], the “Broad-spectrum MMP activity in embryonic brain” value (MMP) was “significantly inhibited”, the “fractional anisotropy (FA) values vs control” value (C3H/HeJ mice pups, brain; PND 28-34, all six brain regions (HI, CT, ST, TH, HY, CE)) was “significantly lower” and the “fractional anisotropy (FA) values vs control” value (C3H/HeJ mice pups, brain; female pups, HI) was “trend of decrease”. The “fractional anisotropy (FA) values vs control” value (C3H/HeJ mice pups, brain; female pups, TH) was “significant reduction”, the “fractional anisotropy (FA) values vs control” value (C3H/HeJ mice pups, brain; male pups, HI, CT, ST and HY) was “significantly reduced” and the “fractional anisotropy (FA) values vs control” value (C3H/HeJ mice pups, brain; male pups, TH and CE) was “trend of reduced FA values”. The “plasma drug levels in pregnant dams relative to maximal DTG concentration (Cmax) in human plasma at therapeutic doses” value ([1]; 50 mg/kg daily) was 10 ×, the Kp ([1]; embryo brain / dam plasma, GD 16.5) was 0.024 and the Kp ([1]; pup brain / dam plasma, PND 4) was 0.038. The “DTG concentration in plasma of dams” value ([1]; GD 8.5, 50 mg/kg daily oral gavage from GD 0.5) was 38,628.63 ± 4855.53 ng/mL, the “ratio of embryo brain DTG levels to placenta DTG levels” value ([1]; GD 16.5) was 0.18 and the “DTG concentration in placental tissue” value ([1]; GD 16.5, 50 mg/kg daily oral) was 3528.04 ± 316.56 ng/g. For the same compound, the “DTG concentration in plasma of dams” value ([1]; GD 16.5, 50 mg/kg daily oral gavage from GD 0.5) was 27,296.3 ± 2701.15 ng/mL, the “DTG concentration in embryonic brain tissue” value ([1]; GD 16.5, 50 mg/kg daily oral to dam) was 663.6 ± 75.13 ng/g and the “DTG concentration in brain tissue of pups” value ([1]; PND 4) was 48.1 ± 2.35 ng/g. The “DTG concentration in plasma of dams” value ([1]; PND 4, dosing stopped at birth of pups) was 1244.2 ± 623.20 ng/mL, the “DTG concentration in plasma of dams” value ([1]; PND 12, dosing stopped at birth of pups) was 48.95 ± 7.39 ng/mL and the “DTG concentration in plasma of dams” value ([1]; PND 21, dosing stopped at birth of pups) was 21.97 ± 2.42 ng/mL. The “DTG level in pup's brain predicted from dam plasma/embryo brain ratio (detection limit)” value ([1]; PND 28, after cessation of dosing at birth) was less than 0.1 ng/g, the Kp ([1]; female, placenta / dam plasma, GD 16.5) was 0.12 and the “overall clinical prevalence of NTDs among infants born to women receiving DTG at conception” value [2] was ~ 0.3%. The “risk of NTDs relative to other ARTs at conception” value ([2]; extended surveillance in Botswana) was 2–3 times, the “protein levels of MMP-9 in embryo brain tissue” value (MMP-9) was “No significant differences” and the “protein levels of MMP-2 in embryo brain tissue” value (MMP-2) was “No significant differences”. For the same compound, the “protein levels of MMP-14 in embryo brain tissue” value (MMP-14) was “No significant differences”.
